Assay results taken from a melting point compilation (Tetko et al.; mined from patent text by program, amines drawn as free bases though some values may be those of a salt).

melting point [°C] | Structure (SMILES)
119 to 125 | Fc1cccc(OC2CN([C@H]3CC[C@@H](c4c[nH]c5ccc(F)cc54)CC3)C2)c1
124 to 125 | CC(=O)OCC1CC(Nc2cc(Cl)c(Cl)cc2N)C(OC(C)=O)C1OC(C)=O (stereo not drawn)
267 to 270 | COc1nc2c(c(OC)n1)C(c1ccc(F)c(OC)c1)C1=C(COC1=O)N2 (stereo not drawn)
107 to 115 | CCOC(=O)c1oc2c(C(=O)NCCCN3CCN(c4cc(Cl)ccc4OC)CC3)cccc2c(=O)c1C
221 to 222 | Cc1ccc(C(=O)Cn2cc(Cl)cnc2=O)c(C)c1
168 to 169 | Oc1ccc(-c2ccc3ccccc3c2)nc1
117 to 119 | CN1C=C(S(=O)(=O)C(F)(F)F)C(Cl)(c2ccc(Cl)cc2)C1 (stereo not drawn)
100 to 101 | CCOC(=O)c1cccc(-c2nc(-c3cc(C)oc3C)cs2)c1
150 to 151 | Cc1ccc(CC(C(N)=O)c2ccccc2)cc1 (stereo not drawn)
164 to 165 | COc1cc(F)ccc1Oc1c(Cl)nc(C)nc1NS(=O)(=O)c1ccc(C(C)(C)C)cc1
118 | CCN(CCCc1c[nH]c2ccc(F)cc12)C1COc2c(F)ccc(C(=O)NC)c2C1 (stereo not drawn)
138 to 139 | CCCCCCCCc1nc2c(N)nc3ccccc3c2n1CCOCC#Cc1ccccc1
74 to 76 | CC(Br)C(=O)N1C(=O)c2ccccc2OC12CCCCC2 (stereo not drawn)
81 | CC1(C)CC(O)CC(C)(C)N1N=Nc1ccccc1Br
173 to 175 | CS(=O)(=O)c1ccc(-c2sc(N3CCCCC3)nc2-c2ccc(F)cc2)cc1
138 to 140 | CCOC(=O)C(=O)c1cc(C)c(C(=O)c2ccccc2[N+](=O)[O-])n1C
165 to 166 | COc1ccc2cc(CC3=C(CC(=O)O)CCCC3=O)ccc2c1Br
138 to 140 | O=C(O)Cc1cc([N+](=O)[O-])ccc1Sc1ccccc1
173 | COC(=O)[C@@H]1CCC(c2cccc(O)c2)N1C(=O)CNC(=O)OCc1ccccc1 (stereo partly drawn)
150 to 155 | COc1ccc(C(OCC2OC(n3cnc4c(=O)[nH]c(NC(=O)Cc5ccc(Br)cc5)nc43)CC2O)(c2ccccc2)c2ccc(OC)cc2)cc1 (stereo not drawn)
129 to 132 | CC(C)(C)c1cc(N=C2CCCc3cc4c(nc32)C(=Nc2cc(C(C)(C)C)cc(C(C)(C)C)c2)CCC4)cc(C(C)(C)C)c1
185 | O=C(NC1CCCCC1)c1ccc(CO)cc1
156 to 157 | Nc1ccccc1C(=O)N1Cc2ccccc2C(=O)N1
89 to 91 | c1ccc(C(OC(c2ccccc2)(c2ccccc2)c2ccccc2)(c2ccccc2)c2ccccc2)cc1

melting point [°C] | Structure (SMILES)
143 to 174 | c1ccc(-c2cccc3c4c([nH]c23)CCNCC4)cc1
199 to 200 | COc1cc(C(=O)O)ccc1Cn1nc(OC)c2ccc(NC(=O)OC3CCCC3)cc21
162 to 163 | CCCCc1nc2ccccc2n1Cc1ccc(-c2ccccc2CO)cc1
205 to 206 | CCn1ncc2c1ncc1c(Nc3cccc(C(F)(F)F)c3)nc3cc(C)nn3c12
144 to 145 | CC(C)Oc1n[nH]c2nc(Oc3ccc(F)cc3F)ncc12
172 to 174 | CCSCc1c(S(C)(=O)=O)ccc(C(=O)O)c1Cl
167 to 168 | CC(=O)Oc1ccccc1C(=O)Nc1cc(Cl)cc(Cl)c1
85 | COc1cccc(N(C)C(=O)c2ncc(-c3cccc(C)c3)s2)c1
114 to 116 | CCOC(=O)CSc1cc(Cl)nc(Nc2cccc(C)c2C)n1
139 to 140 | Nc1cccc(C#CCCN2CCC(O)(c3ccc(Cl)cc3)CC2)c1
130 to 135 | CN(C)CCC(C(=O)O)c1cccc2ccccc12 (stereo not drawn)
174 to 181 | CC(=O)Nc1cc(N(C)C)ccc1C(=O)c1ccccc1C(=O)O
63 to 67 | CC(C(=O)O)C1CC(=O)N(c2ccc(Cl)cc2)C1 (stereo not drawn)
101 to 103 | Cc1cc(I)cc(CO)c1N
121 to 123 | Cc1c(C)c2c(c(C)c1O)C(=O)CC(CCC(C)CCCC(C)C)(COc1ccc([N+](=O)[O-])cc1)O2 (stereo not drawn)
197 to 198 | CSc1nc(P(=O)(C2CCCCC2)C2CCCCC2)cc(P(=O)(C2CCCCC2)C2CCCCC2)n1
293 to 295 | Cc1c2c(c(-c3ccc(F)cc3)c3c4c(ccc13)OCO4)CNC2=O
105 to 107 | CC(C)(C)[C@H]1CC[C@H](CCC(=O)O)CC1
96 to 97 | CC(C)CNc1nccc(Oc2ccc(NC(=O)c3cc(F)cc(N4CCOCC4)c3)c3ccccc23)n1
141 to 142 | CCOC(=O)Cc1ccc(NC(=O)C(COc2ccccc2Cl)NS(=O)(=O)c2ccc(Cl)cc2)cc1 (racemic)
181 to 183 | CC(C)c1cccc(C(C)C)c1NC(=O)CN1CCN(CCSc2nc3cccc(-c4cc[nH]n4)c3o2)CC1
208 to 210 | CN(C)S(=O)(=O)c1cccc2c1Sc1ccc(O)cc1N2
166 | CCOC(=O)c1c(O)c2c(C)csc2n(Cc2ccccc2)c1=O
268 to 270 | c1ccc(C[C@@H]2CN3C(c4nnn[nH]4)=Nc4nc(C5CCCC5)[nH]c4C3=N2)cc1

melting point [°C] | Structure (SMILES)
110 to 112 | CC1(C)CCc2ccc(OCCCCN3CCN(c4cccc(Cl)c4Cl)CC3)cc2NC1=O
149 to 150 | O=c1[nH]c2ccccc2n1C1CCN(CCCOc2ccc(F)cc2Cl)CC1
243 to 244 | O=C(O)c1ccc2c(c1)nc(-c1ccc(OCc3cc(Cl)ccc3-c3ccc(Cl)cc3)cc1)n2C1CCCCC1
> 350 | O=C1NC(=O)c2c1c(O)nc1cc(Cl)c(Cl)cc21
60 to 62 | Cc1c(SCc2ccco2)ccnc1CO
81.5 to 82.5 | CC(=O)Oc1ccc2c(c1)OC(c1ccccc1)(c1ccccc1)O2
208 to 209 | CCCCS(=O)(=O)Nc1ccc(Oc2cccc3c(C)ccnc23)cc1
135 | Cn1ccc(NC(=O)Nc2cccc3c2C2CC4(CCN2C3=O)SCCS4)n1 (stereo not drawn)
180 to 183 | O=C(c1ccc2[nH]ccc2c1)N1CCN(CCc2ccc3nonc3c2)CC1
128 to 130 | COCCCNC(N)=O
98 | CCN(CC)C(=O)c1[nH]c2ccccc2c1CN(Cc1cc(C(F)(F)F)cc(C(F)(F)F)c1)c1nnn(C)n1
153 to 156 | Cc1cc(C)nc(COCP(=O)(O)O)c1
181 to 182 | O=C(Nc1ccc2c(c1)CS(=O)(=O)N2)C(=O)N1CCC(Cc2ccccc2)CC1
96 to 97 | CN(C)c1nc(Cl)nc(N2CCOCC2)n1
94 to 95 | CCOC(=O)C1(C)C=C(O)c2c(sc3c2CCC2(C3)OCCO2)N1 (stereo not drawn)
239 | COc1ccc(-n2c(-c3ccc(Br)cc3)nc3c4ccccc4c4ccccc4c32)cc1
250 to 252 | Oc1ccc(-c2nc(-c3ccccc3)nc(-c3ccc(O)cc3O)n2)c(O)c1
154 to 155 | CCc1ccc2c(c1)C(C(=O)O)c1ccccc1CO2 (stereo not drawn)
68 to 70 | C=CCc1ccccc1OC[C@@H](O)CNCCc1ccc(NC2CCN(S(=O)(=O)c3ccc(N(CCCCCC)C(N)=O)cc3)CC2)cc1
86 to 89 | N#Cc1ccccc1Sc1ccccc1N
123 to 125 | CC(C)c1ccc(N(Cc2ccc(N(C)C)cc2)C(=O)C2CCCc3ccc(C(C)C)cc32)cc1 (stereo not drawn)
131 to 132 | COC(=O)C1CC(=O)C(NC(C)=O)=C(O)C1 (stereo not drawn)
300 to 303 | O=C(CCl)Nc1ccc2[nH]c(=O)c3ccccc3c2c1
89 to 90 | O=C1CCCN1C(=O)Oc1ccc(F)cc1

melting point [°C] | Structure (SMILES)
104 | CC=CC(c1ccc2c(c1)nnn2C)n1ccnc1 (stereo not drawn)
126 to 127 | CCCCn1c(=O)n(CCN2CCC(C(=O)c3ccc(F)cc3)CC2)c(=O)c2cscc21
101 to 105 | CCOC(=O)c1nnc(SC)nc1NCc1ccc(OC)c(Cl)c1
168 to 169 | CCCCOc1c(CNC(=O)OC(C)(C)C)n(CC(C)(C)C)c(=O)c2ccc(F)cc12
89 to 90 | CC(C)OCC(COC(C)C)OCn1cnc2cnc(N)nc21
119 | CCSc1c(Nc2c(C)c(=O)c2=O)ccc2[nH]cc(CCCO)c12
158 | COC(=O)c1ccc(CNc2ccc(C)c(Nc3nccc(-c4cccnc4)n3)c2)cc1
58 | Cc1csc(C(=O)OC(C)C)c1S(=O)(=O)Cl
173 to 175 | CN1CCN(c2cccc3ccc(NC(=O)c4ccccc4)cc23)CC1
101 to 102 | COc1ccc(CC(=O)c2ccc(OC)cc2O)cc1
84 to 87 | CCC(=NO)c1nc(C)nc2c1c(C)c(C)n2-c1c(C)cc(C)cc1C
109 to 110 | O=c1cc(OCc2ccccc2)cc(CC(O)c2ccc(OCc3ccccc3)c(OCc3ccccc3)c2)o1 (stereo not drawn)
145 to 147 | CCCCC(=N)NC(=O)Nc1ccccc1OCc1ccccc1
90 to 92 | COc1ccc2c(c1)c(CC(=O)Oc1ccc(CN3CCN(CC(C)(C)SN=O)CC3)cc1)c(C)n2C(=O)c1ccc(Cl)cc1
138 | CNS(=O)(=O)c1sc(C)cc1CC(=O)O
> 235 | Cc1cccc(C)c1-c1cc(Cl)cc2c1OC(CN1CCCCC1)C2 (stereo not drawn)
65 to 68 | CCC1Nc2c(C)cccc2-n2cccc21 (stereo not drawn)
121 to 124 | N#CN1Cc2ccccc2-c2ccccc2C1
167 to 169 | O=C(CCl)Nc1cc2c(Nc3cc(Cl)c(Cl)cc3F)ncnc2cc1OCCOCCF
200 to 204 | CC(C)C[C@H](NC(=O)[C@H](Cc1cccc2ccccc12)NC(=O)OCc1ccccc1)C(=O)NN
33 to 33.5 | [N-]=[N+]=NCc1ccc(C(=O)c2ccc(Cl)cc2)c(Cl)c1
190 to 194 | Cn1c(C(F)F)nn(-c2cc(OCC(N)=O)c(Cl)cc2Cl)c1=O

Structure (SMILES) | melting point [°C]
BrCc1ccc(CBr)c(Br)c1 | 90 to 91
CC12CC(F)C3C4CCC(=O)C=C4CC(CCCCCBr)C3C1CCC2=O (stereo not drawn) | 75 to 76
CC1=C(c2c[nH]c(-c3ccc(F)cc3)c2-c2ccncc2)CCN2CCC[C@@H]12 | 233 to 234
Cc1cnc(N2CCNCC2)c2ccoc12 | 112
